Experimental data from patent US9340590B2 (priority 2011, dated 2016).
Like-named read-outs stand apart in the source and are kept apart here. Positions of bridges follow the written chain, without caps; N, C: chain ends. Residues, ends and D or L forms follow the SMILES beside them.

Columns and labels:
Assay in all cases: cell-based
[1] = target: hNav1.7 (Homo sapiens, UniProt Q15858); type: cell-based; settings: IonWorks Quattro, read-out: IWQ Use Nav1.7
[2] = target: hNav1.5 (Homo sapiens, UniProt Q14524)
[3] = target: hNav1.3 (Homo sapiens, UniProt Q9NY46); settings: IonWorks Quattro, read-out: IWQ Use Nav1.3
[4] = clamped to −110 mV, depolarized to −10 mV, 5 min after compound, n=2
[5] = IonWorks Quattro, clamped to −110 mV, depolarized to −10 mV, 5 min after compound, n=2, read-out: IWQ Use Nav1.5

hNav1.3, sequence (Q9NY46 whole entry, looked up): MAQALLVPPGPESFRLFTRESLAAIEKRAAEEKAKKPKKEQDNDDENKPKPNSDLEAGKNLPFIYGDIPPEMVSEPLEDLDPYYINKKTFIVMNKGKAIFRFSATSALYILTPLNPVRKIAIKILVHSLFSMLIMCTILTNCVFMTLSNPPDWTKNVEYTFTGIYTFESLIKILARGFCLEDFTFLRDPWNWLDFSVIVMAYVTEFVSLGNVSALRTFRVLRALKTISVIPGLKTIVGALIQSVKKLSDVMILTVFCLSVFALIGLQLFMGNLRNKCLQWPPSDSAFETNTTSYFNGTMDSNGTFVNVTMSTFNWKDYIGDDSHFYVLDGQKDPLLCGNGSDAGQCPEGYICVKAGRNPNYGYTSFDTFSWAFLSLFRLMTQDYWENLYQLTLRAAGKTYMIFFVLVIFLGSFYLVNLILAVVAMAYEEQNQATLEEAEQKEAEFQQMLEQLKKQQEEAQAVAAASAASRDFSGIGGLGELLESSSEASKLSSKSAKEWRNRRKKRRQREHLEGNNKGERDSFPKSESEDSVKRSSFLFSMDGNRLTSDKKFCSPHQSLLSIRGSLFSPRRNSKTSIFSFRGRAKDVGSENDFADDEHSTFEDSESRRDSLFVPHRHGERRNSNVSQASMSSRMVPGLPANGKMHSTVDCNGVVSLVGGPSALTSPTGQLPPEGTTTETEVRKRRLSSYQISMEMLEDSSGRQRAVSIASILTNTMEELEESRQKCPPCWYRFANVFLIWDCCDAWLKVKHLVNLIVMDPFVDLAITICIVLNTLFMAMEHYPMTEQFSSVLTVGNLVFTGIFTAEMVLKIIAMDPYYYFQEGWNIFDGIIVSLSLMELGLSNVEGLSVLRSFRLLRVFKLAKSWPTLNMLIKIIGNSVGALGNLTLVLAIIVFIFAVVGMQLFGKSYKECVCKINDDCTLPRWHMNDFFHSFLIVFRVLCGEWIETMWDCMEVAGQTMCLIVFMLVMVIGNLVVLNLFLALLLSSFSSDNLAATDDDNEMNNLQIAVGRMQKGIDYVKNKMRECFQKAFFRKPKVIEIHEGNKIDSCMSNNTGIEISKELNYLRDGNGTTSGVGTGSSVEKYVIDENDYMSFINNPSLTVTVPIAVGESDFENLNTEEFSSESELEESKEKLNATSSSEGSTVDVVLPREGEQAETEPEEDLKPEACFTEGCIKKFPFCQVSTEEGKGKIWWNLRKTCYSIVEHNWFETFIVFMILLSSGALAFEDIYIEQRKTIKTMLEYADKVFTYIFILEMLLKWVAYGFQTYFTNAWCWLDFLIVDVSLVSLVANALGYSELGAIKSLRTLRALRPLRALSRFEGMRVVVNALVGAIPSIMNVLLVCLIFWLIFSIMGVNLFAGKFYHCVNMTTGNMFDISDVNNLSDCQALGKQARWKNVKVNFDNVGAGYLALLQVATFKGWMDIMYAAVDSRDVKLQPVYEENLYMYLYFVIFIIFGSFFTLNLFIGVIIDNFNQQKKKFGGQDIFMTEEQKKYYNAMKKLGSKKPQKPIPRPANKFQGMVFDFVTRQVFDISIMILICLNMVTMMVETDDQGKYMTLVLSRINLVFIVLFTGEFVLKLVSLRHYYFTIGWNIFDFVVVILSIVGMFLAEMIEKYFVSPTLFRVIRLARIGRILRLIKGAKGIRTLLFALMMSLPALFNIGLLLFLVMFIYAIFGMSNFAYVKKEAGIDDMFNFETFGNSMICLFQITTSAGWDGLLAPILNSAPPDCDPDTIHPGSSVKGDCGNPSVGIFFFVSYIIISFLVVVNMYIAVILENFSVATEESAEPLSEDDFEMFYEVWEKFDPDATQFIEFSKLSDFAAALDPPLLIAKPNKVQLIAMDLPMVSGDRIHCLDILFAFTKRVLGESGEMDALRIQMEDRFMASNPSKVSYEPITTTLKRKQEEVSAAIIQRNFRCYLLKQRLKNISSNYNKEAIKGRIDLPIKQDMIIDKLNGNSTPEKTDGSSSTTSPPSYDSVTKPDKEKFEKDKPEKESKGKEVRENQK
hNav1.7, sequence (Q15858 whole entry, looked up): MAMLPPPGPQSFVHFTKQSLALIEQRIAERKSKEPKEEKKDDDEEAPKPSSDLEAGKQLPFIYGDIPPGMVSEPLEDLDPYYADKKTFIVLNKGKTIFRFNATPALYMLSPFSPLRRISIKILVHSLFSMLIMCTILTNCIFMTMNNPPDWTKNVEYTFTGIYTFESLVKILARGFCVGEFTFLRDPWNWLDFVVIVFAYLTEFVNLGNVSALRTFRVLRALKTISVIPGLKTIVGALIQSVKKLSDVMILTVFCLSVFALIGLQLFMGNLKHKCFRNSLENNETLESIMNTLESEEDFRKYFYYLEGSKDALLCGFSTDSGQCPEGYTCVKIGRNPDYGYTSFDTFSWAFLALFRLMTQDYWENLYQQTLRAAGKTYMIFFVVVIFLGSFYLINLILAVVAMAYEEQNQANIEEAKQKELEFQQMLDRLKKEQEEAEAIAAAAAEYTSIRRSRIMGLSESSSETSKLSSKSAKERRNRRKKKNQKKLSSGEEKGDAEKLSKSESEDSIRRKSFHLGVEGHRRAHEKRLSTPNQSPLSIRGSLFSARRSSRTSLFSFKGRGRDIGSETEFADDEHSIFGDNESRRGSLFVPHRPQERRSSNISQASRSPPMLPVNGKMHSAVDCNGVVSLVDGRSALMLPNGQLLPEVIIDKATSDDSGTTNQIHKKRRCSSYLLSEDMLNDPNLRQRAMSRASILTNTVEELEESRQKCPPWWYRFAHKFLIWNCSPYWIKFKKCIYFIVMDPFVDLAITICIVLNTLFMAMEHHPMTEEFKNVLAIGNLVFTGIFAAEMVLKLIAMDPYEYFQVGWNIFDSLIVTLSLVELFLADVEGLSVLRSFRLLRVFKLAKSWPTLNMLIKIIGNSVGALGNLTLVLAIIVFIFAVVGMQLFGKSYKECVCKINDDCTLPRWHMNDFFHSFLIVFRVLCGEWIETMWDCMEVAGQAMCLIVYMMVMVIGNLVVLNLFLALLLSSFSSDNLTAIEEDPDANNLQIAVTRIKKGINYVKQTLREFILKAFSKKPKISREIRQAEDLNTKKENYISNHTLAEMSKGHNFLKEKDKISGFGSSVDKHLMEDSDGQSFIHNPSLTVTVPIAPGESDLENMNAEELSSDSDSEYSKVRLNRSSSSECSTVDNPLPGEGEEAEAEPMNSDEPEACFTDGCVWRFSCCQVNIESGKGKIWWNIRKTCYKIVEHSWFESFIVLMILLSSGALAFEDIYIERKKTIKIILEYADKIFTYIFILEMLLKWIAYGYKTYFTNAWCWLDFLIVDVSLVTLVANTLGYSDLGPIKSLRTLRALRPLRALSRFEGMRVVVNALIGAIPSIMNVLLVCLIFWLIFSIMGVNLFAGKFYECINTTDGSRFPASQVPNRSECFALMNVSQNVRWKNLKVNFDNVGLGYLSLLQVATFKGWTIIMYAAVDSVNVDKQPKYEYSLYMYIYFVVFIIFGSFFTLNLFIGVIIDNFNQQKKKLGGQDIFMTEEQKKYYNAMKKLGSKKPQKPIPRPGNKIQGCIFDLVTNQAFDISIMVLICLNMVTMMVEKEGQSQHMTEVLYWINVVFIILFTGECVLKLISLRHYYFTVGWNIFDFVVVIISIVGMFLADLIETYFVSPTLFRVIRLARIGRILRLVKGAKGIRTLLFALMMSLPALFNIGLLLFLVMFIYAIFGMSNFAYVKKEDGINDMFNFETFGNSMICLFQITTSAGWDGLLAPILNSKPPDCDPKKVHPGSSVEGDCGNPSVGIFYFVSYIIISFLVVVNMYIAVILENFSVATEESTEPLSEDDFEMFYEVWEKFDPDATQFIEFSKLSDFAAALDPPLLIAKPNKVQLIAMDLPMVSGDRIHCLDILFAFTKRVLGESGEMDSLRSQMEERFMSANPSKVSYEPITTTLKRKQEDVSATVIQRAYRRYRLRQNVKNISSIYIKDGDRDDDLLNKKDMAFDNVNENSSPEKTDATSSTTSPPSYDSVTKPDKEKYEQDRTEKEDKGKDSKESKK

SMILES | IC50 [1, 4] [nM] | IC50 [2, 5] [µM] | IC50 [3, 4] [nM] | IC50 ([2]; IWQ Use Nav1.5) [µM] | IC50 ([1]; Table 23, use, […]) [nM] | IC50 ([2]; IWQ Use Nav1.5 (μM)) [µM] | IC50 ([3]; Table 23, use, […]) [nM]
CC[C@H](C)[C@@H]1NC(=O)[C@@H]2CSSC[C@@H]3NC(=O)[C@H](C(C)C)NC(=O)[C@H](CC(C)C)NC(=O)[C@H](CC(N)=O)NC(=O)[C@@H]4CCCN4C(=O)[C@H](CCCNC(=N)N)NC(=O)[C@H](CSSC[C@H](NC(=O)[C@@H](N)CC(=O)O)C(=O)N[C@@H](CC(C)C)C(=O)NCC(=O)N[C@@H](Cc4ccccc4)C(=O)N[C@@H](C)C(=O)N[C@@H](CCCNC(=N)N)C(=O)N[C@@H](CCCCN)C(=O)N2)NC(=O)[C@H](CSSC[C@@H](C(=O)N[C@@H](CCCCN)C(=O)N[C@@H](Cc2ccc(O)cc2)C(=O)N[C@H](C(=O)N[C@@H](Cc2ccccc2)C(N)=O)C(C)C)NC(=O)[C@H](Cc2c[nH]c4ccccc24)NC(=O)[C@H](CCCCN)NC(=O)[C@H](Cc2cnc[nH]2)NC(=O)[C@H]([C@@H](C)O)NC(=O)[C@H](CCCNC(=N)N)NC(=O)[C@H](CO)NC3=O)NC(=O)[C@H](CCCCN)NC(=O)[C@H](CC(=O)O)NC(=O)[C@H](CC(N)=O)NC(=O)[C@H](CC(=O)O)NC(=O)[C@@H]2CCCN2C1=O [SEQ ID NO: 23] (H-DCLGFARKCIPDNDKCCRPNLVCSRTHKWCKYVF-NH2; disulfide 2-17, 9-23, 16-30) | 510 | 17.4 | 210 |  |  |  | 
CC[C@H](C)[C@@H]1NC(=O)[C@@H]2CSSC[C@@H]3NC(=O)[C@H](C(C)C)NC(=O)[C@H](CC(C)C)NC(=O)[C@H](CC(N)=O)NC(=O)[C@@H]4CCCN4C(=O)[C@H](CCCNC(=N)N)NC(=O)[C@H](CSSC[C@H](NC(=O)[C@H](CC(=O)O)NC(=O)[C@@H](N)CCCCN)C(=O)N[C@@H](CC(C)C)C(=O)NCC(=O)N[C@@H](Cc4ccccc4)C(=O)N[C@@H](CCSC)C(=O)N[C@@H](CCCNC(=N)N)C(=O)N[C@@H](CCCCN)C(=O)N2)NC(=O)[C@H](CSSC[C@@H](C(=O)N[C@@H](CCCCN)C(=O)N[C@@H](Cc2ccc(O)cc2)C(=O)N[C@H](C(=O)N[C@@H](Cc2ccccc2)C(N)=O)C(C)C)NC(=O)[C@H](Cc2c[nH]c4ccccc24)NC(=O)[C@H](CCCCN)NC(=O)[C@H](Cc2cnc[nH]2)NC(=O)[C@H]([C@@H](C)O)NC(=O)[C@H](CCCNC(=N)N)NC(=O)[C@H](CO)NC3=O)NC(=O)[C@H](CCCCN)NC(=O)[C@H](CC(=O)O)NC(=O)[C@H](CC(N)=O)NC(=O)[C@H](CC(=O)O)NC(=O)[C@@H]2CCCN2C1=O [SEQ ID NO: 36] | 110 | 8.35 | 100 |  |  |  | 
CC[C@H](C)[C@@H]1NC(=O)[C@@H]2CSSC[C@@H]3NC(=O)[C@H](C(C)C)NC(=O)[C@H](CC(C)C)NC(=O)[C@H](CC(N)=O)NC(=O)[C@@H]4CCCN4C(=O)[C@H](CCCNC(=N)N)NC(=O)[C@H](CSSC[C@H](NC(=O)[C@@H](N)CC(=O)O)C(=O)N[C@@H](CCCCN)C(=O)NCC(=O)N[C@@H](Cc4ccccc4)C(=O)N[C@@H](CCSC)C(=O)N[C@@H](CCCNC(=N)N)C(=O)N[C@@H](CCCCN)C(=O)N2)NC(=O)[C@H](CSSC[C@@H](C(=O)N[C@@H](CCCCN)C(=O)N[C@@H](Cc2ccc(O)cc2)C(=O)N[C@H](C(=O)N[C@@H](Cc2ccccc2)C(N)=O)C(C)C)NC(=O)[C@H](Cc2c[nH]c4ccccc24)NC(=O)[C@H](CCCCN)NC(=O)[C@H](Cc2cnc[nH]2)NC(=O)[C@H]([C@@H](C)O)NC(=O)[C@H](CCCNC(=N)N)NC(=O)[C@H](CO)NC3=O)NC(=O)[C@H](CCCCN)NC(=O)[C@H](CC(=O)O)NC(=O)[C@H](CC(N)=O)NC(=O)[C@H](CC(=O)O)NC(=O)[C@@H]2CCCN2C1=O [SEQ ID NO: 38] (H-DCKGFMRKCIPDNDKCCRPNLVCSRTHKWCKYVF-NH2; disulfide 2-17, 9-23, 16-30) | 80 | 6.95 | 60 |  |  |  | 
CC[C@H](C)[C@@H]1NC(=O)[C@@H]2CSSC[C@@H]3NC(=O)[C@H](C(C)C)NC(=O)[C@H](CC(C)C)NC(=O)[C@H](CC(N)=O)NC(=O)[C@@H]4CCCN4C(=O)[C@H](CCCNC(=N)N)NC(=O)[C@H](CSSC[C@H](NC(=O)[C@H](CC(=O)O)NC(=O)[C@@H](N)CCCNC(=N)N)C(=O)N[C@@H](CC(C)C)C(=O)NCC(=O)N[C@@H](Cc4ccccc4)C(=O)N[C@@H](CCSC)C(=O)N[C@@H](CCCNC(=N)N)C(=O)N[C@@H](CCCCN)C(=O)N2)NC(=O)[C@H](CSSC[C@@H](C(=O)N[C@@H](CCCCN)C(=O)N[C@@H](Cc2ccc(O)cc2)C(=O)N[C@H](C(=O)N[C@@H](Cc2ccccc2)C(N)=O)C(C)C)NC(=O)[C@H](Cc2c[nH]c4ccccc24)NC(=O)[C@H](CCCCN)NC(=O)[C@H](Cc2c[nH]cn2)NC(=O)[C@H]([C@@H](C)O)NC(=O)[C@H](CCCNC(=N)N)NC(=O)[C@H](CO)NC3=O)NC(=O)[C@H](CCCCN)NC(=O)[C@H](CC(=O)O)NC(=O)[C@H](CC(N)=O)NC(=O)[C@H](CC(=O)O)NC(=O)[C@@H]2CCCN2C1=O [SEQ ID NO: 61] | 170 | 15.1 | 80 |  |  |  | 
CC[C@H](C)[C@@H]1NC(=O)[C@@H]2CSSC[C@@H]3NC(=O)[C@H](C(C)C)NC(=O)[C@H](CC(C)C)NC(=O)[C@H](CC(N)=O)NC(=O)[C@@H]4CCCN4C(=O)[C@H](CCCNC(=N)N)NC(=O)[C@H](CSSC[C@H](NC(=O)[C@@H](N)CC(=O)O)C(=O)N[C@@H](CC(C)C)C(=O)NCC(=O)N[C@@H](Cc4ccccc4)C(=O)N[C@@H](CCCNC(=N)N)C(=O)N[C@@H](CCCNC(=N)N)C(=O)N[C@@H](CCCCN)C(=O)N2)NC(=O)[C@H](CSSC[C@@H](C(=O)N[C@@H](CCCCN)C(=O)N[C@@H](Cc2ccc(O)cc2)C(=O)N[C@H](C(=O)N[C@@H](Cc2ccccc2)C(N)=O)C(C)C)NC(=O)[C@H](Cc2c[nH]c4ccccc24)NC(=O)[C@H](CCCCN)NC(=O)[C@H](Cc2cnc[nH]2)NC(=O)[C@H]([C@@H](C)O)NC(=O)[C@H](CCCNC(=N)N)NC(=O)[C@H](CO)NC3=O)NC(=O)[C@H](CCCCN)NC(=O)[C@H](CC(=O)O)NC(=O)[C@H](CC(N)=O)NC(=O)[C@H](CC(=O)O)NC(=O)[C@@H]2CCCN2C1=O [SEQ ID NO: 64] (H-DCLGFRRKCIPDNDKCCRPNLVCSRTHKWCKYVF-NH2; disulfide 2-17, 9-23, 16-30) | 6980 |  | 5900 | 17.6 |  |  | 
CC[C@H](C)[C@@H]1NC(=O)[C@@H]2CSSC[C@@H]3NC(=O)[C@H](C(C)C)NC(=O)[C@H](CC(C)C)NC(=O)[C@H](CC(N)=O)NC(=O)[C@@H]4CCCN4C(=O)[C@H](CCCNC(=N)N)NC(=O)[C@H](CSSC[C@H](NC(=O)[C@@H](N)CC(=O)O)C(=O)N[C@@H](CC(C)C)C(=O)NCC(=O)N[C@@H](Cc4ccccc4)C(=O)N[C@@H](CCSC)C(=O)N[C@@H](CCCNC(=N)N)C(=O)N[C@@H](CCCCN)C(=O)N2)NC(=O)[C@H](CSSC[C@@H](C(=O)N[C@@H](CCCCN)C(=O)N[C@@H](Cc2ccc(O)cc2)C(=O)N[C@H](C(=O)N[C@@H](Cc2ccccc2)C(N)=O)C(C)C)NC(=O)[C@H](Cc2c[nH]c4ccccc24)NC(=O)[C@H](CCCNC(=N)N)NC(=O)[C@H](Cc2cnc[nH]2)NC(=O)[C@H]([C@@H](C)O)NC(=O)[C@H](CCCNC(=N)N)NC(=O)[C@H](CO)NC3=O)NC(=O)[C@H](CCCCN)NC(=O)[C@H](CC(=O)O)NC(=O)[C@H](CC(N)=O)NC(=O)[C@H](CC(=O)O)NC(=O)[C@@H]2CCCN2C1=O [SEQ ID NO: 72, [Arg28]GpTx-1] |  |  |  |  | 80 | 8.95 | 130
CC[C@H](C)[C@@H]1NC(=O)[C@@H]2CSSC[C@@H]3NC(=O)[C@H](C(C)C)NC(=O)[C@H](CC(C)C)NC(=O)[C@H](CC(N)=O)NC(=O)[C@@H]4CCCN4C(=O)[C@H](CCCNC(=N)N)NC(=O)[C@H](CSSC[C@H](NC(=O)[C@@H](N)Cc4c[nH]c5ccccc45)C(=O)N[C@@H](CC(C)C)C(=O)NCC(=O)N[C@@H](Cc4ccccc4)C(=O)N[C@@H](CCSC)C(=O)N[C@@H](CCCNC(=N)N)C(=O)N[C@@H](CCCCN)C(=O)N2)NC(=O)[C@H](CSSC[C@@H](C(=O)N[C@@H](CCCCN)C(=O)N[C@@H](Cc2ccc(O)cc2)C(=O)N[C@H](C(=O)N[C@@H](Cc2ccccc2)C(N)=O)C(C)C)NC(=O)[C@H](Cc2c[nH]c4ccccc24)NC(=O)[C@H](CCCCN)NC(=O)[C@H](Cc2cnc[nH]2)NC(=O)[C@H]([C@@H](C)O)NC(=O)[C@H](CCCNC(=N)N)NC(=O)[C@H](CO)NC3=O)NC(=O)[C@H](CCCCN)NC(=O)[C@H](CC(=O)O)NC(=O)[C@H](CC(N)=O)NC(=O)[C@H](CC(=O)O)NC(=O)[C@@H]2CCCN2C1=O [SEQ ID NO: 81] (H-WCLGFMRKCIPDNDKCCRPNLVCSRTHKWCKYVF-NH2; disulfide 2-17, 9-23, 16-30) | 50 |  | 100 | 8.79 |  |  | 
